Measured values: PubChem BioAssay (NCI)
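Interpolation was linear, between the two tested concentrations surrounding the appropriate level; five concentrations were tested over 48 hours in 96-well plates. At the TGI there is no net growth.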

Key:
Experiment in all cases: NCI-60 cell line screen, 48 h
LOX IMVI melanoma = system: LOX IMVI melanoma
SNB-19 CNS = system: SNB-19 CNS
MCF7 breast = system: MCF7 breast
CCRF-CEM leukemia = system: CCRF-CEM leukemia
IGROV1 ovarian = system: IGROV1 ovarian
HL-60(TB) leukemia = system: HL-60(TB) leukemia
MDA-N = system: MDA-N
A549 NSCLC = system: A549 NSCLC
SK-MEL-2 melanoma = system: SK-MEL-2 melanoma
SN12C renal = system: SN12C renal
TK-10 renal = system: TK-10 renal
SF-295 CNS = system: SF-295 CNS
OVCAR-8 ovarian = system: OVCAR-8 ovarian
HOP-92 NSCLC = system: HOP-92 NSCLC
K-562 leukemia = system: K-562 leukemia
KM12 colon = system: KM12 colon
OVCAR-5 ovarian = system: OVCAR-5 ovarian
SR leukemia = system: SR leukemia
UACC-62 melanoma = system: UACC-62 melanoma
NCI/ADR-RES ovarian = system: NCI/ADR-RES ovarian
NCI-H522 lung = system: NCI-H522 lung
SF-268 CNS = system: SF-268 CNS
HCC-2998 colon = system: HCC-2998 colon
HOP-62 NSCLC = system: HOP-62 NSCLC
UACC-257 melanoma = system: UACC-257 melanoma
NCI-H23 lung = system: NCI-H23 lung
DU-145 prostate = system: DU-145 prostate
HCT-15 colon = system: HCT-15 colon
MOLT-4 leukemia = system: MOLT-4 leukemia
NCI-H460 lung = system: NCI-H460 lung
SK-MEL-5 melanoma = system: SK-MEL-5 melanoma
OVCAR-4 ovarian = system: OVCAR-4 ovarian
T-47D breast = system: T-47D breast
HS 578T breast = system: HS 578T breast
SK-MEL-28 melanoma = system: SK-MEL-28 melanoma
SW-620 colon = system: SW-620 colon
RPMI-8226 leukemia = system: RPMI-8226 leukemia
HCT-116 colon = system: HCT-116 colon
NCI-H226 lung = system: NCI-H226 lung
ACHN renal = system: ACHN renal
MALME-3M melanoma = system: MALME-3M melanoma
PC-3 prostate = system: PC-3 prostate
U251 CNS = system: U251 CNS
M14 melanoma = system: M14 melanoma
COLO 205 colon = system: COLO 205 colon
MDA-MB-231 breast = system: MDA-MB-231 breast
786-0 renal = system: 786-0 renal
HT29 colon = system: HT29 colon
RXF 393 renal = system: RXF 393 renal
SK-OV-3 ovarian = system: SK-OV-3 ovarian
BT-549 breast = system: BT-549 breast
EKVX NSCLC = system: EKVX NSCLC
MDA-MB-435 = system: MDA-MB-435
CAKI-1 renal = system: CAKI-1 renal
UO-31 renal = system: UO-31 renal

Cc1nn2c(N)cc(=O)nc2nc1/C=C/c1ccc(N(C)C)cc1 showed a TGI (LOX IMVI melanoma) of 22 µM, a TGI (SNB-19 CNS) of over 100 µM and a TGI (MCF7 breast) of over 100 µM. For the same compound, the TGI (CCRF-CEM leukemia) was 2.41 µM, the TGI (IGROV1 ovarian) was over 100 µM and the TGI (HL-60(TB) leukemia) was 0.0117 µM. For the same compound, the TGI (MDA-N) was over 100 µM, the TGI (A549 NSCLC) was over 100 µM and the TGI (SK-MEL-2 melanoma) was over 100 µM. It also gave a TGI (SN12C renal) of over 100 µM, a TGI (TK-10 renal) of over 100 µM and a TGI (SF-295 CNS) of over 100 µM. It also gave a TGI (OVCAR-8 ovarian) of over 100 µM, a TGI (HOP-92 NSCLC) of over 43.6 µM and a TGI (K-562 leukemia) of over 100 µM. It also gave a TGI (KM12 colon) of over 100 µM, a TGI (OVCAR-5 ovarian) of over 100 µM and a TGI (SR leukemia) of over 100 µM. For the same compound, the TGI (UACC-62 melanoma) was over 100 µM, the TGI (NCI/ADR-RES ovarian) was over 100 µM and the TGI (NCI-H522 lung) was 7.62 µM. The TGI (SF-268 CNS) was over 100 µM, the TGI (HCC-2998 colon) was 23.3 µM and the TGI (HOP-62 NSCLC) was over 100 µM. The TGI (UACC-257 melanoma) was over 100 µM, the TGI (NCI-H23 lung) was over 100 µM and the TGI (DU-145 prostate) was over 100 µM. The TGI (HCT-15 colon) was over 27.9 µM, the TGI (MOLT-4 leukemia) was over 100 µM and the TGI (NCI-H460 lung) was over 100 µM. For the same compound, the TGI (SK-MEL-5 melanoma) was over 100 µM, the TGI (OVCAR-4 ovarian) was over 100 µM and the TGI (T-47D breast) was over 100 µM. It also gave a TGI (HS 578T breast) of over 100 µM, a TGI (SK-MEL-28 melanoma) of over 100 µM and a TGI (SW-620 colon) of over 100 µM. The TGI (RPMI-8226 leukemia) was over 100 µM, the TGI (HCT-116 colon) was over 100 µM and the TGI (NCI-H226 lung) was over 100 µM. For the same compound, the TGI (ACHN renal) was over 100 µM, the TGI (MALME-3M melanoma) was 49.8 µM and the TGI (PC-3 prostate) was over 100 µM. It also gave a TGI (U251 CNS) of over 100 µM, a TGI (M14 melanoma) of over 100 µM and a TGI (COLO 205 colon) of over 100 µM. For the same compound, the TGI (MDA-MB-231 breast) was over 100 µM, the TGI (786-0 renal) was over 100 µM and the TGI (HT29 colon) was over 100 µM. It also gave a TGI (RXF 393 renal) of over 100 µM, a TGI (SK-OV-3 ovarian) of over 100 µM and a TGI (BT-549 breast) of over 100 µM. The TGI (EKVX NSCLC) was over 100 µM, the TGI (MDA-MB-435) was over 100 µM and the TGI (CAKI-1 renal) was over 100 µM. The TGI (UO-31 renal) was over 100 µM.
